The target of the experiment is T1, human PD-1 / PD-L1-Ig binding on Jurkat cell line over-expressing human PD-1 (Jurkat-PD-1) (Homo sapiens, UniProt Q15116).
T1 construct: expressed in transfected cells; host or cells: Jurkat
As to the kind of experiment: Jurkat-PD-1 Cell Binding High-Content Screening Assay (CBA). It counts as cell-based. The conditions noted are these: PE-labeled PD-L1-Ig 20 nM final. An outline of the steps:
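Jurkat-hPD-1 cells in DMEM with 10% fetal calf serum receive test compound and are held at 37° C for 2 h. PE-labeled PD-L1-Ig is added at 20 nM final and left for 1 hour. Cells are then fixed and Hoechst-stained, and binding is measured by imaging.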

[1] abbreviates: Jurkat HPD1_PDL1 IC50, Jurkat-PD-1 cells.
[2] abbreviates: Jurkat-PD-1 cells, read-out: Jurkat HPD1_PDL1 IC50.

Structures are written as SMILES. Like-named read-outs stand apart in the source and are kept apart here. Where a SMILES comes first, the peptide text is derived from it. Bridges are numbered along the chain shown (N, C = ends). [ ]: non-standard residue; d: D form. The star is where a group is joined. Ala(4-isoquinolinyl) = N[C@@H](Cc1cncc2ccccc12)C(=O)O; Phe(4-COOH) = N[C@@H](Cc1ccc(C(=O)O)cc1)C(=O)O; Bip = N[C@@H](Cc1ccc(-c2ccccc2)cc1)C(=O)O; Phe(3-Cl) = N[C@@H](Cc1cccc(Cl)c1)C(=O)O; Phe(3-OMe) = COc1cccc(C[C@H](N)C(=O)O)c1; Phe(3-Me) = Cc1cccc(C[C@H](N)C(=O)O)c1; Val(3-OH) = CC(C)(O)[C@H](N)C(=O)O; 4Pal = N[C@@H](Cc1ccncc1)C(=O)O; Cha = N[C@@H](CC1CCCCC1)C(=O)O; Cit = NC(=O)NCCC[C@H](N)C(=O)O; Ahp(2) = CCCCC[C@H](N)C(=O)O; dDab = NCC[C@@H](N)C(=O)O; Carboxymethyl = O=C(O)C*; Nle = CCCC[C@H](N)C(=O)O; Orn = NCCC[C@H](N)C(=O)O; Dab = NCC[C@H](N)C(=O)O; Dap = NC[C@H](N)C(=O)O; Bn = c1ccc(C*)cc1; Propargyl = C#CC*

For orientation: IC50 means the point on the concentration scale where inhibition reaches its midpoint.

T1 sequence (Q15116 25-288): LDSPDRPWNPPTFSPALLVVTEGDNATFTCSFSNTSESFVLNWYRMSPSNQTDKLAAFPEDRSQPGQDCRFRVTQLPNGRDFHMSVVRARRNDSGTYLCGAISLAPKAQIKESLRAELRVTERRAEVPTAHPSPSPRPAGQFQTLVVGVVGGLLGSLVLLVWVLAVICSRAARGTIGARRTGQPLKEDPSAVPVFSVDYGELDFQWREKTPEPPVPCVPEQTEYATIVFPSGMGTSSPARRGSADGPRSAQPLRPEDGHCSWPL

Take `CC[C@H](C)[C@@H]1NC(=O)[C@H](Cc2ccc(-c3ccccc3)cc2)NC(=O)[C@H](C(C)C)NC(=O)[C@H](Cc2cccc(Cl)c2)NC(=O)[C@H](CC(=O)O)NC(=O)[C@H](Cc2ccc(C(=O)O)cc2)NC(=O)[C@H](Cc2ccncc2)NC(=O)CSC[C@@H](C(=O)N[C@@H](C)C(N)=O)NC(=O)[C@H]([C@@H](C)O)NC(=O)[C@H](C(C)C)NC(=O)[C@H](CC2CCCCC2)NC(=O)[C@H](CCN)NC(=O)[C@@H](CC(C)C)NC(=O)[C@H](CCCN)NC1=O` [Compound 1558]: the IC50 under setting [1] was 15.8 nM.

Turning to `COc1cccc(C[C@@H]2NC(=O)[C@H](CC(=O)O)NC(=O)[C@H](Cc3ccc(C(=O)O)cc3)NC(=O)[C@H](Cc3ccncc3)NC(=O)CSC[C@@H](C(=O)N[C@@H](C)C(N)=O)NC(=O)[C@H]([C@@H](C)O)NC(=O)[C@H](C(C)C)NC(=O)[C@H](CC(C)C)NC(=O)[C@H](CCN)NC(=O)[C@@H](CC(C)C)NC(=O)[C@H](CCCN)NC(=O)[C@H](C(C)C)NC(=O)[C@H](Cc3ccc(-c4ccccc4)cc3)NC(=O)[C@H](C(C)C)NC2=O)c1` [Compound 1183] ({CH2CO}-[4Pal][Phe(4-COOH)]D[Phe(3-OMe)]V[Bip]V[Orn][dL][Dab]LVTCA-NH2; thioether N-14), the IC50 under setting [2] worked out at 6.1 nM.

On to `C#CCOc1ccc(C[C@@H]2NC(=O)[C@@H](CC(C)C)NC(=O)[C@H](CCCN)NC(=O)[C@H](C(C)C)NC(=O)[C@H](Cc3ccc(-c4ccccc4)cc3)NC(=O)[C@H](C(C)C)NC(=O)[C@H](Cc3cccc(C)c3)NC(=O)[C@H](CC(=O)O)NC(=O)[C@H](Cc3ccc(C(=O)O)cc3)NC(=O)[C@H](CN)NC(=O)CSC[C@@H](C(=O)N[C@@H](CCN)C(N)=O)NC(=O)[C@H]([C@@H](C)O)NC(=O)[C@H](C(C)C)NC(=O)[C@H](CC3CCCCC3)NC2=O)cc1` [Compound 2026] ({CH2CO}-[Dap][Phe(4-COOH)]D[Phe(3-Me)]V[Bip]V[Orn][dL]Y(Propargyl)[Cha]VTC[Dab]-NH2; thioether N-14), for which, under setting [2], the IC50 worked out at 133 nM.

On to `CCCC[C@@H]1NC(=O)[C@H](CCN)NC(=O)[C@@H](CC(C)C)NC(=O)[C@H](CCCN)NC(=O)[C@H](C(C)C)NC(=O)[C@H](Cc2ccc(-c3ccccc3)cc2)NC(=O)[C@H](C(C)C)NC(=O)[C@H](Cc2cccc(C)c2)NC(=O)[C@H](CC(=O)O)NC(=O)[C@H](Cc2ccc(C(=O)O)cc2)NC(=O)[C@H](CN)NC(=O)CSC[C@@H](C(=O)N[C@@H](C)C(N)=O)NC(=O)[C@H]([C@@H](C)O)NC(=O)[C@H](C(C)C)NC1=O` [Compound 1205] ({CH2CO}-[Dap][Phe(4-COOH)]D[Phe(3-Me)]V[Bip]V[Orn][dL][Dab][Nle]VTCA-NH2; thioether N-14), for which, under setting [2], the IC50 is 10.7 nM.

Take `Cc1cccc(C[C@@H]2NC(=O)[C@H](CC(=O)O)NC(=O)[C@H](Cc3ccc(OCC(=O)O)cc3)NC(=O)[C@H](CN)NC(=O)CSC[C@@H](C(=O)NCC(N)=O)NC(=O)[C@H]([C@@H](C)O)NC(=O)[C@H](C(C)C)NC(=O)[C@H](CC3CCCCC3)NC(=O)[C@H](CCN)NC(=O)[C@@H](CC(C)C)NC(=O)[C@H](CCCN)NC(=O)[C@H](CCCNC(N)=O)NC(=O)[C@H](Cc3ccc(-c4ccccc4)cc3)NC(=O)[C@H](C(C)C)NC2=O)c1` [Compound 2255] ({CH2CO}-[Dap]Y(Carboxymethyl)D[Phe(3-Me)]V[Bip][Cit][Orn][dL][Dab][Cha]VTCG-NH2; thioether N-14): the IC50 under setting [2] is 11.8 nM.

Consider `CC(C)C[C@H]1NC(=O)[C@H](CCCN)NC(=O)[C@H](C(C)C)NC(=O)[C@H](Cc2ccc(-c3ccccc3)cc2)NC(=O)[C@H](C(C)C)NC(=O)[C@H](Cc2cccc(Cl)c2)NC(=O)[C@H](CC(=O)O)NC(=O)[C@H](Cc2ccncc2)NC(=O)[C@H](Cc2ccc(OCC(=O)O)cc2)NC(=O)CSC[C@@H](C(=O)N[C@@H](C)C(N)=O)NC(=O)[C@H]([C@@H](C)O)NC(=O)[C@H](C(C)C)NC(=O)[C@H](CC2CCCCC2)NC(=O)[C@H](CCN)NC1=O` [Compound 1570] ({CH2CO}-Y(Carboxymethyl)[4Pal]D[Phe(3-Cl)]V[Bip]V[Orn][dL][Dab][Cha]VTCA-NH2; thioether N-14), for which the IC50 under setting [2] stood at 18.4 nM.

For the compound `CCCCC[C@@H]1NC(=O)[C@H](Cc2ccc(-c3ccccc3)cc2)NC(=O)[C@H](C(C)C)NC(=O)[C@H](Cc2c[nH]c3ccccc23)NC(=O)[C@H](CC(=O)O)NC(=O)[C@H](Cc2ccc(C(=O)O)cc2)NC(=O)[C@H](Cc2ccncc2)NC(=O)CSC[C@@H](C(=O)N[C@@H](CC(N)=O)C(N)=O)NC(=O)[C@H](CO)NC(=O)[C@H](C(C)C)NC(=O)[C@H](CC2CCCCC2)NC(=O)[C@H](CCN)NC(=O)[C@@H](C)NC(=O)[C@H](CCCN)NC1=O` [Compound 2541] ({CH2CO}-[4Pal][Phe(4-COOH)]DWV[Bip][Ahp(2)][Orn][dA][Dab][Cha]VSCN-NH2; thioether N-14), the IC50 under setting [2] came out at 58.4 nM.

For the compound `CC(C)C[C@H]1NC(=O)[C@H](CCCN)NC(=O)[C@H](CCCNC(N)=O)NC(=O)[C@H](Cc2ccc(-c3ccccc3)cc2)NC(=O)[C@H](C(C)C)NC(=O)[C@H](Cc2c[nH]c3ccccc23)NC(=O)[C@H](CC(=O)O)NC(=O)[C@H](Cc2cncc3ccccc23)NC(=O)[C@H](CN)NC(=O)CSC[C@@H](C(=O)N[C@@H](C)C(N)=O)NC(=O)[C@H]([C@@H](C)O)NC(=O)[C@H](C(C)C)NC(=O)[C@H](CC2CCCCC2)NC(=O)[C@H](CCN)NC1=O` [Compound 2118] ({CH2CO}-[Dap][Ala(4-isoquinolinyl)]DWV[Bip][Cit][Orn][dL][Dab][Cha]VTCA-NH2; thioether N-14), under setting [2], the IC50 turned out to be 62.6 nM.

Consider `Cc1cccc(C[C@@H]2NC(=O)[C@H](CC(=O)O)NC(=O)[C@H](Cc3ccc(OCC(=O)O)cc3)NC(=O)[C@H](CN)NC(=O)CSC[C@@H](C(=O)N[C@@H](C)C(N)=O)NC(=O)[C@H]([C@@H](C)O)NC(=O)[C@H](C(C)C)NC(=O)[C@H](CC3CCCCC3)NC(=O)[C@H](CCN)NC(=O)[C@@H](CC(C)C)NC(=O)[C@H](CCCN)NC(=O)[C@H](C(C)C)NC(=O)[C@H](Cc3ccc(-c4ccccc4)cc3)NC(=O)[C@H](C(C)C)NC2=O)c1` [Compound 1212], for which the IC50 under setting [2] was determined as 6 nM.

Take `Cc1cccc(C[C@@H]2NC(=O)[C@H](CC(=O)O)NC(=O)[C@H](Cc3ccc(OCC(=O)O)cc3)NC(=O)[C@H](CN)NC(=O)CSC[C@@H](C(=O)N[C@@H](CCN)C(N)=O)NC(=O)[C@H](CCCN)NC(=O)[C@H](C(C)C)NC(=O)[C@H](CC3CCCCC3)NC(=O)[C@H](CCN)NC(=O)[C@@H](CC(C)C)NC(=O)[C@@H](CCN)NC(=O)[C@H](Cc3ccc(O)cc3)NC(=O)[C@H](Cc3ccc(-c4ccccc4)cc3)NC(=O)[C@H](Cc3ccc(O)cc3)NC2=O)c1` [Compound 2039] ({CH2CO}-[Dap]Y(Carboxymethyl)D[Phe(3-Me)]Y[Bip]Y[dDab][dL][Dab][Cha]V[Orn]C[Dab]-NH2; thioether N-14): the IC50 under setting [2] came to 12.9 nM.

For `CC(C)C[C@H]1NC(=O)[C@H](CCCN)NC(=O)[C@H](C(C)C)NC(=O)[C@H](Cc2ccc(-c3ccccc3)cc2)NC(=O)[C@H](C(C)C)NC(=O)[C@H](Cc2c[nH]c3ccccc23)NC(=O)[C@H](CC(=O)O)NC(=O)[C@H](Cc2ccc(OCC(=O)O)cc2)NC(=O)[C@H](CN)NC(=O)CSC[C@@H](C(=O)N[C@@H](C)C(N)=O)NC(=O)[C@H]([C@@H](C)O)NC(=O)[C@H](C(C)C)NC(=O)[C@H](CC2CCCCC2)NC(=O)[C@H](CCN)NC1=O` [Compound 1312] ({CH2CO}-[Dap]Y(Carboxymethyl)DWV[Bip]V[Orn][dL][Dab][Cha]VTCA-NH2; thioether N-14), the IC50 under setting [2] came out at 4 nM.

Turning to `CC(C)C[C@H]1NC(=O)[C@H](CCCN)NC(=O)[C@H](C(C)C)NC(=O)[C@H](Cc2ccc(-c3ccccc3)cc2)NC(=O)[C@H](C(C)C)NC(=O)[C@H](Cc2c[nH]c3ccccc23)NC(=O)[C@H](CC(=O)O)NC(=O)[C@H](Cc2ccc(OCC(=O)O)cc2)NC(=O)[C@H](CN)NC(=O)CSC[C@@H](C(=O)N[C@@H](C)C(N)=O)NC(=O)[C@H]([C@@H](C)O)NC(=O)[C@H](C(C)C)NC(=O)[C@H](CC2CCCCC2)NC(=O)[C@H](Cc2ccc(OCc3ccccc3)cc2)NC1=O` [Compound 1531] ({CH2CO}-[Dap]Y(Carboxymethyl)DWV[Bip]V[Orn][dL]Y(Bn)[Cha]VTCA-NH2; thioether N-14), the IC50 under setting [1] amounted to 707 nM.

For the compound `Cc1cccc(C[C@@H]2NC(=O)[C@H](CC(=O)O)NC(=O)[C@H](Cc3ccc(C(=O)O)cc3)NC(=O)[C@H](CCN)NC(=O)CSC[C@@H](C(=O)N[C@@H](CCN)C(N)=O)NC(=O)[C@H](CO)NC(=O)[C@H](C(C)(C)O)NC(=O)[C@H](CC3CCCCC3)NC(=O)[C@H](CCN)NC(=O)[C@@H](CC(C)C)NC(=O)[C@H](CCCN)NC(=O)[C@H](Cc3ccc(C(=O)O)cc3)NC(=O)[C@H](Cc3ccc(-c4ccccc4)cc3)NC(=O)[C@H](Cc3ccc(C(=O)O)cc3)NC2=O)c1` [Example 2709] ({CH2CO}-[Dab][Phe(4-COOH)]D[Phe(3-Me)][Phe(4-COOH)][Bip][Phe(4-COOH)][Orn][dL][Dab][Cha][Val(3-OH)]SC[Dab]-NH2; thioether N-14), under setting [2], the IC50 was 2.3 nM.

Take `CC(C)C[C@H]1NC(=O)[C@H](CN)NC(=O)[C@H](C(C)C)NC(=O)[C@H](Cc2ccc(-c3ccccc3)cc2)NC(=O)[C@H](C(C)C)NC(=O)[C@H](Cc2c[nH]c3ccccc23)NC(=O)[C@H](CC(=O)O)NC(=O)[C@H](Cc2ccc(O)cc2)NC(=O)[C@H](Cc2ccccc2)NC(=O)CSC[C@@H](C(=O)NCC(N)=O)NC(=O)[C@H](CO)NC(=O)[C@H](C(C)C)NC(=O)[C@H](CC2CCCCC2)NC(=O)[C@H](CC(N)=O)NC1=O` [Compound 1412] ({CH2CO}-FYDWV[Bip]V[Dap][dL]N[Cha]VSCG-NH2; thioether N-14): under setting [2], the IC50 is 26.9 nM.

Values taken from patent US20250163104A1, “MACROCYCLIC IMMUNOMODULATORS” (priority 2021, published 2025).
